Tests used:
[1] = in the clinic, cited from earlier work
Description: The sixth diabetic animal, 161281, was not treated because it was already receiving insulin.

diabetic rhesus monkeys [2] = assay: Multiscale entropy (MSE) analysis of glucose dynamics before and during liraglutide treatment; assay type: in vivo; conditions: 15 µg/kg sc daily
Method: Details about the definition and calculation of MSE are given in the Supplementary Materials and Methods. MSE-AUC10s-30m is the area under an MSE curve between scale factors of 10 seconds and 30 minutes, and was used as a single-number summary of the curve.
Five diabetic animals were treated with liraglutide for four weeks, beginning during the sixth week of monitoring. […] For each animal the period of the same length immediately preceding the start of liraglutide was used as the comparator (‘pre-liraglutide’) period.
Supplementary Materials and Methods
Multiscale entropy analysis, introduced by Costa et al1, is built upon a quantity called sample entropy2, which we describe first. The sample entropy of a regularly spaced time series of length N is defined using two parameters: a subsequence length, m, and a similarity threshold, r. Consider any two subsequences of length m of the time series. […]
start at the same position.) The subsequences are said to match if the i-th element of one subsequence differs from the i-th element of the other by no more than r, for all ݅=1,…,݉. Let B denote the number of matching pairs of subsequences when we consider all possible pairs of length- m subsequences from the first […] observations of the series. Next, repeat the process of counting matches, but use subsequences of length m+1instead of m, and consider all possible such subsequences taken from the full series of N observations. Let A denote the number of matching pairs among them.
Then the sample entropy is the negative natural logarithm of the ratio A/B. See Richman and Moorman 2 for details and explicit formulas. […]
Multiscale entropy calculates this sample entropy after applying various amounts of averaging to the original time series. […] The result is a new time series of averages, for which sample entropy is calculated. […]
Application of MSE analysis requires choosing values for the parameters m and r, and the set of scale factors to use. […] The smallest possible scale fact or is set by the time resolution of the series being analyzed, in our case 1 second. […]

diabetic rhesus monkeys [3] = assay: Glucose lowering by liraglutide detected by continuous glucose monitoring (CGM); assay type: in vivo; conditions: for Mean glucose, With liraglutide: CGM over treatment period (16 to 28 days)
Method: Vehicle used was 1 mM Sodium Phosphate (pH = 8) and 5% Mannitol. […] Blood samples were obtained at 0.08, 0.25, 0.50, 1.00, 2.00, 4.00, 6.00, 7.00, and 24.00 hours post-dose. […] Compound was given daily subcutaneously at 15 µg/kg in the morning each day (~8–9 am). Lira dosing started on Day 39 of the CGM period and continued for 28 days.
Surgery procedure: Rhesus monkeys underwent surgery for placement of the DSI HD-XG glucose sensor into the right carotid artery. Animals were initially sedated with 10 mg/kg ketamine IM, intubated and anesthesia was maintained through isoflurane inhalation. All monkeys received 0.01 mg/kg Buprenorphine IM, 4.4 mg/kg carprofen SC and 20 mg/kg ceftiofur SC preoperatively. A 3–4 centimeter skin incision was made on the right, mid-lateral neck over the carotid artery where the pulse was palpated. A 1–2 centimeter segment of the right carotid artery was isolated and a tight ligature was placed distally towards the head around the exposed section of vessel. A second ligature was pre-placed, but not tightened, proximally towards the chest around the exposed section of vessel to prevent excessive bleeding when the vessel was cut. A small incision was made in the artery between these two ligatures. The sensor was inserted into the lumen of the vessel and advanced towards the heart approximately 8–9 centimeters. The pre-placed ligature was tightened to prevent bleeding around the sensor. A third ligature was secured around the sensor between the previously placed ligatures and further secured around the vessel to prevent the sensor from migrating. The telemetry body was secured to the underlying musculature in the right lateral neck near the sensor entry into the artery. Monkeys received 2 mg/kg bupivacaine locally at the skin incision. All incisions were then closed routinely. The animals were removed from the isoflurane anesthesia to allow for recovery and were monitored until they were sternal and stable. Animals received 4.4 mg/kg carprofen PO or IM once the day following surgery and were observed daily for the next 10 days to assure a normal recovery. A reference electrode and telemetry body was placed in the subcutaneous tissue near the catheter entry point as recommended by DSI.
The implanted sensor transmits its signal to a repeater located on the same animal on the collar. That repeater then immediately retransmits the HD-XG data on a different frequency to a repeater receiver up to 8 meters away. […] Glucose sensor values were reported once per second.

CCCCCCCCCCCCCCCC(=O)N[C@@H](CCC(=O)NCCCC[C@H](NC(=O)[C@H](C)NC(=O)[C@H](C)NC(=O)[C@H](CCC(N)=O)NC(=O)CNC(=O)[C@H](CCC(=O)O)NC(=O)[C@H](CC(C)C)NC(=O)[C@H](Cc1ccc(O)cc1)NC(=O)[C@H](CO)NC(=O)[C@H](CO)NC(=O)[C@@H](NC(=O)[C@H](CC(=O)O)NC(=O)[C@H](CO)NC(=O)[C@@H](NC(=O)[C@H](Cc1ccccc1)NC(=O)[C@@H](NC(=O)CNC(=O)[C@H](CCC(=O)O)NC(=O)[C@H](C)NC(=O)[C@@H](N)Cc1cnc[nH]1)[C@@H](C)O)[C@@H](C)O)C(C)C)C(=O)N[C@@H](CCC(=O)O)C(=O)N[C@@H](Cc1ccccc1)C(=O)N[C@H](C(=O)N[C@@H](C)C(=O)N[C@@H](Cc1c[nH]c2ccccc12)C(=O)N[C@@H](CC(C)C)C(=O)N[C@H](C(=O)N[C@@H](CCCNC(=N)N)C(=O)NCC(=O)N[C@@H](CCCNC(=N)N)C(=O)NCC(=O)O)C(C)C)[C@@H](C)CC)C(=O)O [liraglutide]
time of maximum concentrations post dosing ([1]; subcutaneous administration): 8 to 12 h
mean peak (Cmax) exposure ([1]; subcutaneous single dose of 0.6 mg): 35 ng/mL
MSE curve of glucose, treatment vs pre-treatment period (diabetic rhesus monkeys [2]; animals 161286 and 161288): higher
complexity of glucose dynamics in diabetic animals (diabetic rhesus monkeys [2]; five diabetic rhesus, 2–4 weeks of treatment): did not consistently change complexity
MSE of glucose, treatment vs pre-treatment period (diabetic rhesus monkeys [2]; three of five treated diabetic animals, 16 to 28 days): essentially no difference
afternoon peak in glucose (diabetic rhesus monkeys [3]; all five treated diabetic rhesus, mean glucose by time of day, before and during treatment): reduced
Mean glucose, With liraglutide (diabetic rhesus monkeys [3]; diabetic rhesus animal 161282, 15 µg/kg sc daily): 208.2 mg/dL
Mean glucose, With liraglutide (diabetic rhesus monkeys [3]; diabetic rhesus animal 161283, 15 µg/kg sc daily): 109.6 mg/dL
Mean glucose, With liraglutide (diabetic rhesus monkeys [3]; diabetic rhesus animal 161284, 15 µg/kg sc daily): 183.1 mg/dL
Mean glucose, With liraglutide (diabetic rhesus monkeys [3]; diabetic rhesus animal 161286, 15 µg/kg sc daily): 236.6 mg/dL
Mean glucose, With liraglutide (diabetic rhesus monkeys [3]; diabetic rhesus animal 161288, 15 µg/kg sc daily): 140.9 mg/dL
coefficient of variation of glucose (standard deviation as a proportion of the mean), treatment vs pre-treatment (diabetic rhesus monkeys [3]; five diabetic rhesus, 15 µg/kg sc daily): no consistent change
decline of mean glucose (diabetic rhesus monkeys [3]; range over all five treated diabetic rhesus, 15 µg/kg sc daily, treatment vs pre-treatment period): 5–42%

From article PMC6363759, “Decreased complexity of glucose dynamics in diabetes in rhesus monkeys” (Scientific Reports, 2019)
